Measured values reported in patent US20090156518A1, “STABLE PHARMACEUTICAL COMPOSITION COMPRISING BETA-LACTAM ANTIBIOTIC AND BUFFER” (priority 2006, published 2009).
Marks after values point to notes of the source that are not given here.

Assay: amounts of β-lactam antibiotic, β-lactamase inhibitor (C18 reverse-phase LC, UV-VIS) and aminoglycoside (HPLC-ELSD) in solution over time
Type: physicochemical

C[C@]1(Cn2ccnn2)[C@H](C(=O)O)N2C(=O)C[C@H]2S1(=O)=O [Tazobactam sodium]
amount of component as percentage with respect to the amount at the initial time (Example 8: freeze-dried ceftriaxone sodium, tazobactam sodium, gentamicin sulfate, citrate pH 6.75, 2.5% fructose, 7 days 0° C., in 100 mL water, Time 0 h): 102.2%
amount of component as percentage with respect to the amount at the initial time (Example 8: freeze-dried ceftriaxone sodium, tazobactam sodium, gentamicin sulfate, citrate pH 6.75, 2.5% fructose, 7 days 0° C., in 100 mL water, Time 1 h): 97.53%
amount of component as percentage with respect to the amount at the initial time (Example 8: freeze-dried ceftriaxone sodium, tazobactam sodium, gentamicin sulfate, citrate pH 6.75, 2.5% fructose, 7 days 0° C., in 100 mL water, Time 2 h): 94.16%
amount of component as percentage with respect to the amount at the initial time (Example 8: freeze-dried ceftriaxone sodium, tazobactam sodium, gentamicin sulfate, citrate pH 6.75, 2.5% fructose, 7 days 0° C., in 100 mL water, Time 4 h): 94.58%
amount of component as percentage with respect to the amount at the initial time (Example 8: freeze-dried ceftriaxone sodium, tazobactam sodium, gentamicin sulfate, citrate pH 6.75, 2.5% fructose, 7 days 0° C., in 100 mL water, Time 6 h): 95.45%
amount of component as percentage with respect to the amount at the initial time (Example 8: freeze-dried ceftriaxone sodium, tazobactam sodium, gentamicin sulfate, citrate pH 6.75, 2.5% fructose, 7 days 0° C., in 100 mL water, Time 8 h): 94.44%
amount of component as percentage with respect to the amount at the initial time (Example 16: 10 mL of the final solution (cefoperazone sodium, tazobactam sodium, etimicin sulfate, citrate) + gentamicin sulfate 16 mg, Time 0 h): 93.36%
amount of component as percentage with respect to the amount at the initial time (Example 16: 10 mL of the final solution (cefoperazone sodium, tazobactam sodium, etimicin sulfate, citrate) + gentamicin sulfate 16 mg, Time 1 h): 104.8%
amount of component as percentage with respect to the amount at the initial time (Example 16: 10 mL of the final solution (cefoperazone sodium, tazobactam sodium, etimicin sulfate, citrate) + gentamicin sulfate 16 mg, Time 2 h): 100.0%
amount of component as percentage with respect to the amount at the initial time (Example 16: 10 mL of the final solution (cefoperazone sodium, tazobactam sodium, etimicin sulfate, citrate) + gentamicin sulfate 16 mg, Time 4 h): 96.58* %
amount of component as percentage with respect to the amount at the initial time (Example 16: 10 mL of the final solution (cefoperazone sodium, tazobactam sodium, etimicin sulfate, citrate) + gentamicin sulfate 16 mg, Time 6 h): 106.1* %
amount of component as percentage with respect to the amount at the initial time (Example 16: 10 mL of the final solution (cefoperazone sodium, tazobactam sodium, etimicin sulfate, citrate) + gentamicin sulfate 16 mg, Time 8 h): 107.1* %
amount of component as percentage with respect to the amount at the initial time (Example 16: freeze-dried cefoperazone sodium 4 g, tazobactam sodium 1 g, citrate pH 6.75, 7 days 0° C., in 100 mL water, 10 mL + etimicin sulfate 20 mg, room temperature, Time 0 h): 98.77%
amount of component as percentage with respect to the amount at the initial time (Example 16: freeze-dried cefoperazone sodium 4 g, tazobactam sodium 1 g, citrate pH 6.75, 7 days 0° C., in 100 mL water, 10 mL + etimicin sulfate 20 mg, room temperature, Time 1 h): 108.2%
amount of component as percentage with respect to the amount at the initial time (Example 16: freeze-dried cefoperazone sodium 4 g, tazobactam sodium 1 g, citrate pH 6.75, 7 days 0° C., in 100 mL water, 10 mL + etimicin sulfate 20 mg, room temperature, Time 2 h): 110.8%
amount of component as percentage with respect to the amount at the initial time (Example 16: freeze-dried cefoperazone sodium 4 g, tazobactam sodium 1 g, citrate pH 6.75, 7 days 0° C., in 100 mL water, 10 mL + etimicin sulfate 20 mg, room temperature, Time 4 h): 97.39%
amount of component as percentage with respect to the amount at the initial time (Example 16: freeze-dried cefoperazone sodium 4 g, tazobactam sodium 1 g, citrate pH 6.75, 7 days 0° C., in 100 mL water, 10 mL + etimicin sulfate 20 mg, room temperature, Time 6 h): 106.3%
amount of component as percentage with respect to the amount at the initial time (Example 16: freeze-dried cefoperazone sodium 4 g, tazobactam sodium 1 g, citrate pH 6.75, 7 days 0° C., in 100 mL water, 10 mL + etimicin sulfate 20 mg, room temperature, Time 8 h): 106.3%
amount of component as percentage with respect to the amount at the initial time (Example 20: ceftriaxone sodium 2 g, tazobactam sodium 2 g, gentamicin sulfate 160 mg, citrate pH 6.75, 200 mL water, room temperature, Time 0 h): 102.2%
amount of component as percentage with respect to the amount at the initial time (Example 20: ceftriaxone sodium 2 g, tazobactam sodium 2 g, gentamicin sulfate 160 mg, citrate pH 6.75, 200 mL water, room temperature, Time 1 h): 97.53%
amount of component as percentage with respect to the amount at the initial time (Example 20: ceftriaxone sodium 2 g, tazobactam sodium 2 g, gentamicin sulfate 160 mg, citrate pH 6.75, 200 mL water, room temperature, Time 2 h): 94.16%
amount of component as percentage with respect to the amount at the initial time (Example 20: ceftriaxone sodium 2 g, tazobactam sodium 2 g, gentamicin sulfate 160 mg, citrate pH 6.75, 200 mL water, room temperature, Time 4 h): 94.58%
amount of component as percentage with respect to the amount at the initial time (Example 20: ceftriaxone sodium 2 g, tazobactam sodium 2 g, gentamicin sulfate 160 mg, citrate pH 6.75, 200 mL water, room temperature, Time 6 h): 95.45%
amount of component as percentage with respect to the amount at the initial time (Example 20: ceftriaxone sodium 2 g, tazobactam sodium 2 g, gentamicin sulfate 160 mg, citrate pH 6.75, 200 mL water, room temperature, Time 8 h): 94.44%
